The structures appear in SMILES notation. Where a SMILES comes first, the peptide text is derived from it. The star is where a group is joined. Cbz = O=C(OCc1ccccc1)*

Holding throughout (assay type): biochemical
In one experiment the target is T1, MCH-2 (Homo sapiens, UniProt P55212).
T1 sequence (P55212 24-179 limits assumed): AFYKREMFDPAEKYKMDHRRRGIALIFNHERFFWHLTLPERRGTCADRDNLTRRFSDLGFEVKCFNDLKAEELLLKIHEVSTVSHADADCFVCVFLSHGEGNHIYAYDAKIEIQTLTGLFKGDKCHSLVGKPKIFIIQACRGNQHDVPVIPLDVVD
T1 sequence (P55212 194-293 limits assumed): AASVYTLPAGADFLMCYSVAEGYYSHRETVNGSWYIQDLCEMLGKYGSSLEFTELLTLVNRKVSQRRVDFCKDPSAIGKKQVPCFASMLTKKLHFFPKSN
The experiment can be described thus: Fluorescence enzyme assay, determination of IC50 values (Mch2). The settings on record: 30 min preincubation, substrate Acetyl-Asp-Glu-Val-Asp-AMC, room temperature. How it is done:
(§1) Fluorescence enzyme assays detecting the activity of the compounds of Formula I utilizing the recombinant ICE and CPP32 enzymes are performed essentially according to Thornberry et al. (Nature, 356:768:774 (1992)) and Nicholson et al. (Nature, 376:37–43 (1995)) respectively, (herein incorporated by reference) in 96 well microtiter plates. The substrate is Acetyl-Tyr-Val-Ala-Asp-amino-4-methylcoumarin (AMC) for the ICE assay and Acetyl-Asp-Glu-Val-Asp-amino-4-methylcoumarin for the CPP32, Mch2, Mch3 and Mch5 assays. Enzyme reactions are run in ICE buffer (25 mM HEPES, 1 mM EDTA, 0.1% CHAPS, 10% sucrose, pH 7.5) containing 2 mM DTT at room temperature in duplicate.
(§2) The enzyme and the compound of Formula I to be assayed are allowed to preincubate in the microtitre plate wells for 30 minutes at room temperature prior to the addition of substrate to initiate the reaction. Fluorescent AMC product formation is monitored for one hour at room temperature by measuring the fluorescence emission at 460 nm using an excitation wavelength of 360 nm.
(§3) The reference compound for this assay was Cbz-ValAlaAsp-H and the values are denoted in Table 1 as “Reference”.

Another experiment addresses T2, MCH-3 (Homo sapiens, UniProt P55210).
T2 sequence (P55210 24-198 limits assumed): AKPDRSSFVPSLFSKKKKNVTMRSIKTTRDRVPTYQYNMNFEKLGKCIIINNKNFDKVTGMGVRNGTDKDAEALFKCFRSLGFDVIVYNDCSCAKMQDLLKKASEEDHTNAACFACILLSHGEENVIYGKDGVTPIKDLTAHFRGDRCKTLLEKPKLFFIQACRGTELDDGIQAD
T2 sequence (P55210 207-303 limits assumed): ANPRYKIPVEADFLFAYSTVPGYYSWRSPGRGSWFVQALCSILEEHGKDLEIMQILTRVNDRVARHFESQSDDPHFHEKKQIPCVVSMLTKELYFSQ
The experiment can be described thus: Fluorescence enzyme assay, determination of IC50 values (Mch3). The note with it: 30 min preincubation, substrate Acetyl-Asp-Glu-Val-Asp-AMC, room temperature. Here is the method: as §1, §2, §3

The next experiment addresses T3, mICE (Mus musculus, UniProt P29452).
T3 sequence (P29452 123-296 limits assumed): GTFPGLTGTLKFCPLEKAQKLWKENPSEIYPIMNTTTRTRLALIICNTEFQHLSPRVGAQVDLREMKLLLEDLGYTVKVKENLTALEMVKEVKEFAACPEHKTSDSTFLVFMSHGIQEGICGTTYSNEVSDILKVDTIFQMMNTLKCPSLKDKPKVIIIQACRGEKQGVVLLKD
T3 sequence (P29452 315-402 limits assumed): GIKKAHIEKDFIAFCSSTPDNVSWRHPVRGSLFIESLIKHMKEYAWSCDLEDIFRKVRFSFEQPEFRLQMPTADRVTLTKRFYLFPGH
The experiment can be described thus: Fluorescence enzyme assay, determination of IC50 values (ICE). The settings on record: recombinant enzyme, 30 min preincubation, substrate Acetyl-Tyr-Val-Ala-Asp-AMC, room temperature. Here is the method:
as §1, §2, §3

Another experiment has as its target MCH-5 (Homo sapiens, UniProt Q14790). The experiment can be described thus: Fluorescence enzyme assay, determination of IC50 values (Mch5). The note with it: 30 min preincubation, substrate Acetyl-Asp-Glu-Val-Asp-AMC, room temperature. Here is the method: The substrate is Acetyl-Tyr-Val-Ala-Asp-amino-4-methylcoumarin (AMC) for the ICE assay and Acetyl-Asp-Glu-Val-Asp-amino-4-methylcoumarin for the CPP32, Mch2, Mch3 and Mch5 assays. Enzyme reactions are run in ICE buffer (25 mM HEPES, 1 mM EDTA, 0.1% CHAPS, 10% sucrose, pH 7.5) containing 2 mM DTT at room temperature in duplicate.
as §2, §3

In the next experiment the target is T4, CPP32 (Homo sapiens, UniProt P42574).
T4 sequence (P42574 29-175 limits assumed): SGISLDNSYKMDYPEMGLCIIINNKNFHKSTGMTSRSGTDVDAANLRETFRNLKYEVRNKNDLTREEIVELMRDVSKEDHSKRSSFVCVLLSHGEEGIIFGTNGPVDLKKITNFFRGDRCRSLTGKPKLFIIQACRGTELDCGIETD
T4 sequence (P42574 176-277 limits assumed): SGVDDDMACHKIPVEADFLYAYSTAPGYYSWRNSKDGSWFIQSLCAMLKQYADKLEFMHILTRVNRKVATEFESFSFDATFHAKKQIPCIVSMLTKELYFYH
The experiment can be described thus: Fluorescence enzyme assay, determination of IC50 values (CPP32). The settings on record: recombinant enzyme, 30 min preincubation, substrate Acetyl-Asp-Glu-Val-Asp-AMC, room temperature. Here is the method:
as §1, §2, §3

Chain of MCH-5 (Q14790 217-374 limits assumed, species assumed): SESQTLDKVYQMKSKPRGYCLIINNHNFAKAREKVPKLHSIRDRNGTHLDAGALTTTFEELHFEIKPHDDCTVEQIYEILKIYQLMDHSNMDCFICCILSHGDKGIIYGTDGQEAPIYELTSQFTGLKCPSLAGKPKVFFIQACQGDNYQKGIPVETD
Chain of MCH-5 (Q14790 385-479 limits assumed, species assumed): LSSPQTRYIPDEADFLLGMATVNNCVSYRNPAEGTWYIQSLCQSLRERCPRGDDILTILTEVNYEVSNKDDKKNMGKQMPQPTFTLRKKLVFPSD

Take `CC(C)[C@H](NC(=O)OCc1ccccc1)C(=O)N[C@@H](C)C(=O)N[C@H](C=O)CC(=O)O` [reference, Cbz-ValAlaAsp-H, reference compound] (Cbz-Val-Ala-Asp-aldehyde): the IC50 (as a rule, the concentration that inhibits the measured activity by half) was over 10 µM against MCH-2; over 10 µM at MCH-3; 0.064 µM on mICE; 2.96 µM against MCH-5; 47 µM on CPP32.

Turning to `CC(C)C[C@H](NC(=O)C(=O)Nc1cccc2ccccc12)C(=O)N[C@H](C=O)CC(=O)O` [Example 1, (3S)-3-[N-(N′-(1-NAPHTHYL)OXAMYL)LEUCINYL]AMINO-4-OXOBUTANOIC ACID], the IC50 against MCH-2 was found to be 1.5 µM; against MCH-3, 0.267 µM; on mICE, 0.027 µM; against MCH-5 it was 0.179 µM; at CPP32 it was 0.01 µM.

Source of the values: patent US7183260B2, “C-terminal modified oxamyl dipeptides as inhibitors of the ICE/ced-3 family of cysteine proteases” (Idun Pharmaceuticals, Inc., priority 1998, dated 2007).
